Reference: US20230143553A1, “PRECISION DELIVERY OF MULTI-SCALE PAYLOADS TO TISSUE-SPECIFIC TARGETS IN PLANTS” (MASSACHUSETTS INSTITUTE OF TECHNOLOGY, priority 2020, published 2023)

How the values were obtained:
xylem = assay: Phytoinjector delivery to xylem of tomato, dye transport
Text: Based on these parameters, phytoinjectors were designed with a tip diameter smaller than 35 μm and 10 μm for xylem and phloem, respectively (FIG. 1B, FIG. 13C and FIG. 13D). […] To investigate payload delivery in planta, each payload was loaded to phytoinjectors at the point of material assembly before drying. […] The injected petioles were sliced along the transverse section downstream and upstream at various distances from the injection site to investigate the presence of the delivered dyes. […] In xylem, transport analysis was conducted by tangential sectioning of the stem (FIG. 3E). […] To quantify payloads transport, the fluorescence intensity was integrated (see FIG. 3E). The normalized intensity distribution evolves spatially and temporally (FIG. 3F).

petiole's xylem = assay: Luciferin-luciferase bioluminescent reaction after phytoinjector delivery into petiole xylem; assay type: in vivo, tomato (Solanum lycopersicum); details: luciferin in petiole's xylem; other reagents by foliar infiltration
Text: The phytoinjectors were applied in petiole vasculature near the leaflet to facilitate observation and imaging. At first, luciferin was deployed in the petiole's xylem while the other reagents were delivered by foliar infiltration to the leaf.

Row | Molecule | transport distance upstream of injection site (xylem) [cm] | transport distance downstream of injection site (xylem; from root to leaves) | luminescence of leaf tissue after delivery (petiole's xylem)
1 | 5(6)-carboxyfluorescein diacetate | 1 | more than 7 cm | –
2 | O=C(O)[C@H]1CSC(c2nc3ccc(O)cc3s2)=N1 [luciferin] | – | – | showed luminescence
